Measured values published in patent US20160221948A1, “NITROGEN-CONTAINING SATURATED HETEROCYCLIC COMPOUND” (SUMITOMO CHEMICAL COMPANY, LIMITED, priority 2013, published 2016).

Assays:
[1] = target: T1, SSTR3 (Homo sapiens, UniProt P32745); test: Binding affinity using cell membrane from cells expressing SSTR subtypes
T1 construct: expressed in transfected cells

[2] = target: human SSTR4 (Homo sapiens, UniProt P31391); test: Binding affinity using cell membrane from human SSTR4-expressing Chem-1 cells, [125I] Tyr11-Somatostatin 14; parameters: expressed in transfected cells; conditions: 0.1 nmol/L [125I] Tyr11-Somatostatin 14, 2 hours at 25° C.
Sequence of human SSTR4 (P31391 whole entry): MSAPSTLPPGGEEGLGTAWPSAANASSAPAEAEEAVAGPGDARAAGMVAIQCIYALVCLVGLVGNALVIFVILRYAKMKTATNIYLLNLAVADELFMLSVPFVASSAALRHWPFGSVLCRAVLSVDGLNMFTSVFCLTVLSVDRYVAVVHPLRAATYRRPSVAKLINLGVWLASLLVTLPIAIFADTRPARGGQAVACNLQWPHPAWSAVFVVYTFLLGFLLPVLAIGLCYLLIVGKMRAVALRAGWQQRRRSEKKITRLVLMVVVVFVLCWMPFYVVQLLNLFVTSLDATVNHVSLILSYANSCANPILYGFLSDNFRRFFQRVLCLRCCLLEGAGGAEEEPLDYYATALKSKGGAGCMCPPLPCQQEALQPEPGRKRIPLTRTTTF
Experimental: Binding affinity evaluation using cell membrane from human SSTR4-expressing cells
From Chem-1 cells forcibly expressing human SSTR4, cell membrane was prepared by using Hepes Buffer. A reaction solution consisting of the prepared cell membrane, 0.1 nmol/L [^125I] Tyr11-Somatostatin 14, and a test compound was prepared, and incubated for 2 hours at 25° C. The cell membrane after incubation was filtered, and washed. After dried, the filter was immersed in a scintillator, its radioactivity was measured with a scintillation counter. By defining the difference in radioactivity between the substance not containing a test compound and the substance containing 1 μmol/L Somatostatin 14 as the specific binding amount, inhibitory rates of test compounds were calculated. Based on IC50 of the test compound calculated from the inhibition curve, the concentration of [^125I] Tyr11-Somatostatin 14, and Kd of Somatostatin 14, Ki of the test compound was calculated.

[3] = Pharmacokinetic test (PK test) using rodents; type: in vivo; conditions: mouse, brain and plasma; mice, 10 mg/kg oral, an hour and 4 hours after; read-out: brain-plasma concentration ratio
Experimental: Moreover, it was verified, as the results of a pharmacokinetic test (PK test) using rodents, that the compound of the present invention has more excellent in vivo kinetics, central nervous system penetration, and exposure level, compared with the pyrrolidine derivative described in Patent Literature 1. In particular, the following Test Example 8 was performed.
Pharmacokinetic Test (PK Test) Using Rodents
Compounds of the present invention were orally administered to mice at a dose of 10 mg/kg, and an hour and 4 hours after, the plasma and the brain were collected, concentrations of the administered compounds were measured by LC/MS/MS. As well, protein binding rates in the plasma and the brain were measured with equilibrium dialysis method, and concentrations of non-binding compounds were calculated. The brain-plasma concentration ratio was about 5 in any cases of an hour and 4 hours after for compounds obtained in Examples 7, 14, 15, 16, 17, 18, 20, 21, 27, 40, and 50, which indicated excellent central nervous system penetration.

[4] = tested on: SH-SY5Y cells stably expressing human neprilysin/human SSTR4; test: Neprilysin membrane translocation test using human neprilysin/human SSTR4 coexpressing cells; type: cell-based
Experimental: Neprilysin Membrane Translocation Test Using Human Neprilysin/Human SSTR4 Coexpressing Cells
SH-SY5Y cells stably expressing human neprilysin/human SSTR4 were seeded to culture plates, and incubated in a 37° C./5% CO2 incubator overnight. On the next day, the compounds involved with the present invention were added, and cells were incubated in the 37° C./5% CO2 incubator another night. On the next day, 4% paraformaldehyde was added, and cells were fixed. The cells were washed, and blocked with 3% BSA solution. Then, immunostaining with an anti-neprilysin antibody and Alexa Fluor 488 donkey anti-mouse IgG was performed, and analyzed with an IN CELL Analyzer.

T1 sequence (P32745 whole entry, species assumed): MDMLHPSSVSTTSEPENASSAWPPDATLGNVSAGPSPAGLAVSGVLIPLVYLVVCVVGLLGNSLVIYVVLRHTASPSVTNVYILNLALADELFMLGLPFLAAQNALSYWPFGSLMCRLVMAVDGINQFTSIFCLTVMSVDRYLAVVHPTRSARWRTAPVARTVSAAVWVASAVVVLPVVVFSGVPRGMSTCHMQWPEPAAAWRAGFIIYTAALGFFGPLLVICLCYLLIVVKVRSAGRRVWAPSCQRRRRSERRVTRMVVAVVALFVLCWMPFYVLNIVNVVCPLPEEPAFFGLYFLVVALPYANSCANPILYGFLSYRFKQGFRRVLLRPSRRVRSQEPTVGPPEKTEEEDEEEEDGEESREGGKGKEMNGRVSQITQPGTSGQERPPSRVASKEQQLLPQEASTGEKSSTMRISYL

## CN1CCC[C@H](C(=O)NC(C)(C)c2cc(Cl)ccc2Cl)C1 [Example 21, (3S)—N-[2-(2,5-dichlorophenyl)propane-2-yl]-1-methylpiperidine-3-carboxamide]
[1]
  Ki: > 3000 nM
[2]
  Ki: 21 nM
[3]
  Kp: ~5
[4]
  translocation of neprilysin to cell membrane: concentration-dependently induced the translocation of neprilysin to cell membrane
[4]; Homo sapiens, SH-SY5Y, overnight incubation, immunostaining, IN CELL Analyzer
  EC50: 9.3 nM
